Measurements published in patent publication US20140024667A1, “FUNGICIDAL COMPOSITIONS” (SYNGENTA CROP PROTECTION LLC, priority 2005, published 2014).

Tests used:
Format in all cases: cell-based
[1] = test system: Pseudocercosporella herpotrichoides var. acuformis; assay: Fungal growth assay against Pseudocercosporella herpotrichoides var. acuformis (Example B-8)
Excerpt: (§1) A synergistic effect exists whenever the action of an active ingredient combination is greater than the sum of the actions of the individual components.
(§2) The action to be expected E for a given active ingredient combination obeys the so-called COLBY formula and can be calculated as follows (COLBY, S. R. “Calculating synergistic and antagonistic responses of herbicide combination”. Weeds, Vol. 15, pages 20-22; 1967):
(§3) ppm=milligrams of active ingredient (=a.i.) per liter of spray mixture X=% action by active ingredient A) using p ppm of active ingredient Y=% action by active ingredient B) using q ppm of active ingredient.
(§4) According to COLBY, the expected (additive) action of active ingredients A)+B) using p+q ppm of active ingredient is
(§5) If the action actually observed (O) is greater than the expected action (E), then the action of the combination is super-additive, i.e. there is a synergistic effect.
(§6) Conidia of the fungus from cryogenic storage are directly mixed into nutrient broth (PDB potato dextrose broth). After placing a (DMSO) solution of the test compounds into a microtiter plate (96-well format) the nutrient broth containing the fungal spores is added. The test plates are incubated at 24 C and the inhibition of growth is determined photometrically after 3 days. The fungicide interactions in the combinations are calculated according to the COLBY method. The data generated in this experiment indicate synergy between cyprodinil and boscalid, cyprodinil and dodine and cyprodinil and pyribencarb when used in mixture with one another.

[2] = test system: Botrytis cinerea; assay: Fungal growth assay against Botrytis cinerea (Example B-1 a)
Excerpt: as §1, §2, §3, §4, §5
as §6, with “and” for “and boscalid, cyprodinil and”

[3] = test system: Pyrenophora teres; assay: Fungal growth assay against Pyrenophora teres (Example B-5 a); conditions: Cyprodinil/Pyribencarb series
Excerpt: as §1, §2, §3, §4, §5
as §6, with “The test plates are incubated at 24 C and the inhibition of growth is determined photometrically after 3 days.” left out, “and” for “and boscalid, cyprodinil and dodine and cyprodinil and”

[4] = test system: Fusarium culmorum; assay: Fungal growth assay against Fusarium culmorum (Example B-14)
Excerpt: as §1, §2, §3, §4, §5
as §6, with “2” for “3”, “dodine,” for “boscalid,”, “fluazinam” for “dodine”

[5] = 0.125 mg/L alone, Cyprodinil/Boscalid series
[6] = 0.25 mg/L alone, Cyprodinil/Boscalid series
[7] = 0.5 mg/L alone, Cyprodinil/Boscalid series
[8] = 0.125 mg/L alone, Cyprodinil/Pyribencarb series
[9] = 0.25 mg/L alone, Cyprodinil/Pyribencarb series
[10] = 0.5 mg/L alone, Cyprodinil/Dodine series
[11] = 0.5 mg/L alone, Cyprodinil/Pyribencarb series
[12] = 1 mg/L alone, Cyprodinil/Dodine series
[13] = 1 mg/L alone, Cyprodinil/Pyribencarb series
[14] = 2 mg/L alone, Cyprodinil/Dodine series
[15] = 2 mg/L alone, Cyprodinil/Pyribencarb series
[16] = 4 mg/L alone, Cyprodinil/Dodine series
[17] = 4 mg/L alone, Cyprodinil/Pyribencarb series
[18] = 8 mg/L alone, Cyprodinil/Dodine series
[19] = 0.125 mg/L alone, Cyprodinil/Dodine series
[20] = 0.25 mg/L alone, Cyprodinil/Dodine series
[21] = 16 mg/L alone, Cyprodinil/Dodine series
[22] = 0.008 mg/L alone, Cyprodinil/Pyribencarb series
[23] = 0.016 mg/L alone, Cyprodinil/Pyribencarb series
[24] = 0.031 mg/L alone, Cyprodinil/Pyribencarb series

O=C(Nc1ccccc1-c1ccc(Cl)cc1)c1cccnc1Cl [Boscalid]
Observed control in % (% Cobs) ([1]; 0.031 mg/L alone, Cyprodinil/Boscalid series): 0%
Observed control in % (% Cobs) ([1]; 0.063 mg/L alone, Cyprodinil/Boscalid series): 2.5%
Observed control in % (% Cobs) [1, 5]: 32.8%
Observed control in % (% Cobs) [1, 6]: 58.4%
Observed control in % (% Cobs) [1, 7]: 77.1%

Cc1cc(C2CC2)nc(Nc2ccccc2)n1 [Cyprodinil, (4-cyclopropyl-6-methyl-pyrimidin-2-yl)-phenyl-amine]
Observed control in % (% Cobs) [2, 8]: 16.7%
Observed control in % (% Cobs) [2, 9]: 22.6%
Observed control in % (% Cobs) [2, 10]: 26.7%
Observed control in % (% Cobs) [2, 11]: 21.4%
Observed control in % (% Cobs) [2, 12]: 38.2%
Observed control in % (% Cobs) [2, 13]: 25.7%
Observed control in % (% Cobs) [2, 14]: 50.5%
Observed control in % (% Cobs) [2, 15]: 23.2%
Observed control in % (% Cobs) [2, 16]: 40.1%
Observed control in % (% Cobs) [2, 17]: 37.1%
Observed control in % (% Cobs) [2, 18]: 51.8%
Observed control in % (% Cobs) ([3]; 0.25 mg/L alone): 52.0%
Observed control in % (% Cobs) ([3]; 0.5 mg/L alone): 59.0%
Observed control in % (% Cobs) ([1]; 0.0625 mg/L alone, Cyprodinil/Boscalid series): 23.5%
Observed control in % (% Cobs) [1, 5]: 40.7%
Observed control in % (% Cobs) [1, 19]: 10.9%
Observed control in % (% Cobs) [1, 8]: 16.6%
Observed control in % (% Cobs) [1, 6]: 28.9%
Observed control in % (% Cobs) [1, 20]: 14.8%
Observed control in % (% Cobs) [1, 7]: 19.6%
Observed control in % (% Cobs) [1, 10]: 13.7%
Observed control in % (% Cobs) [1, 11]: 30.1%
Observed control in % (% Cobs) ([1]; 1 mg/L alone, Cyprodinil/Boscalid series): 17.5%
Observed control in % (% Cobs) [1, 12]: 17.9%
Observed control in % (% Cobs) [1, 13]: 19.3%
Observed control in % (% Cobs) ([1]; 2 mg/L alone, Cyprodinil/Boscalid series): 24.6%
Observed control in % (% Cobs) [1, 14]: 20.3%
Observed control in % (% Cobs) [1, 15]: 21.5%
Observed control in % (% Cobs) ([1]; 4 mg/L alone, Cyprodinil/Boscalid series): 33.6%
Observed control in % (% Cobs) [1, 16]: 25.9%
Observed control in % (% Cobs) [1, 17]: 27.2%
Observed control in % (% Cobs) [1, 18]: 33.6%
Observed control in % (% Cobs) [1, 21]: 46.2%
Observed control in % (% Cobs) ([4]; 2 mg/L alone, Cyprodinil/Fluazinam series): 0%
Observed control in % (% Cobs) [4, 16]: 0%
Observed control in % (% Cobs) ([4]; 4 mg/L alone, Cyprodinil/Fluazinam series): 0%
Observed control in % (% Cobs) [4, 18]: 0%
Observed control in % (% Cobs) ([4]; 8 mg/L alone, Cyprodinil/Fluazinam series): 0%
Observed control in % (% Cobs) ([4]; 8 mg/L alone, Cyprodinil/Pyribencarb series): 2.4%
Observed control in % (% Cobs) [4, 21]: 6.7%
Observed control in % (% Cobs) ([4]; 16 mg/L alone, Cyprodinil/Fluazinam series): 9.8%
Observed control in % (% Cobs) ([4]; 16 mg/L alone, Cyprodinil/Pyribencarb series): 8.4%
Observed control in % (% Cobs) ([4]; 32 mg/L alone, Cyprodinil/Dodine series): 26.9%
Observed control in % (% Cobs) ([4]; 32 mg/L alone, Cyprodinil/Fluazinam series): 16.4%
Observed control in % (% Cobs) ([4]; 32 mg/L alone, Cyprodinil/Pyribencarb series): 21.7%

CCCCCCCCCCCCNC(=N)N [Dodine]
Observed control in % (% Cobs) [2, 16]: 0%
Observed control in % (% Cobs) [2, 18]: 0%
Observed control in % (% Cobs) [2, 21]: 36.3%
Observed control in % (% Cobs) [1, 19]: 0%
Observed control in % (% Cobs) [1, 20]: 0%
Observed control in % (% Cobs) [1, 10]: 0%
Observed control in % (% Cobs) [1, 12]: 0%
Observed control in % (% Cobs) [1, 14]: 1.4%
Observed control in % (% Cobs) [1, 16]: 31.3%
Observed control in % (% Cobs) [1, 18]: 70.5%
Observed control in % (% Cobs) [1, 21]: 72.4%
Observed control in % (% Cobs) [4, 18]: 3.3%
Observed control in % (% Cobs) [4, 21]: 15.1%

O=[N+]([O-])c1cc(C(F)(F)F)c(Cl)c([N+](=O)[O-])c1Nc1ncc(C(F)(F)F)cc1Cl [Fluazinam]
Observed control in % (% Cobs) ([4]; 0.063 mg/L alone, Cyprodinil/Fluazinam series): 5.1%
Observed control in % (% Cobs) ([4]; 0.125 mg/L alone, Cyprodinil/Fluazinam series): 11.8%
Observed control in % (% Cobs) ([4]; 0.25 mg/L alone, Cyprodinil/Fluazinam series): 27.4%
Observed control in % (% Cobs) ([4]; 0.5 mg/L alone, Cyprodinil/Fluazinam series): 35.7%
Observed control in % (% Cobs) ([4]; 1 mg/L alone, Cyprodinil/Fluazinam series): 72.4%

COC(=O)NCc1cc(/C(C)=N/OCc2cccc(C)n2)ccc1Cl [Pyribencarb]
Observed control in % (% Cobs) [2, 22]: 0.4%
Observed control in % (% Cobs) [2, 23]: 0%
Observed control in % (% Cobs) [2, 24]: 3.3%
Observed control in % (% Cobs) ([2]; 0.063 mg/L alone, Cyprodinil/Pyribencarb series): 2.6%
Observed control in % (% Cobs) [2, 8]: 16.4%
Observed control in % (% Cobs) ([3]; 0.004 mg/L alone): 0%
Observed control in % (% Cobs) ([3]; 0.008 mg/L alone): 0%
Observed control in % (% Cobs) ([3]; 0.016 mg/L alone): 0%
Observed control in % (% Cobs) ([3]; 0.031 mg/L alone): 0%
Observed control in % (% Cobs) ([3]; 0.063 mg/L alone): 17.0%
Observed control in % (% Cobs) [1, 22]: 16.2%
Observed control in % (% Cobs) [1, 23]: 40.1%
Observed control in % (% Cobs) [1, 24]: 61.1%
Observed control in % (% Cobs) [4, 8]: 0%
Observed control in % (% Cobs) [4, 9]: 8.7%
Observed control in % (% Cobs) [4, 11]: 11.5%
Observed control in % (% Cobs) [4, 13]: 16.2%
